Test results published in article PMC10385579, “Design, Synthesis, and Biological Evaluation of Indole-2-carboxamides as Potential Multi-Target Antiproliferative Agents” (Pharmaceuticals, 2023).

Key:
Assay type in all cases: cell-based, human
caspase-8 = assay: Caspase-8 level assay in A-549 cells
Procedure: See Supplementary Materials.
4.2.6. Caspase-8 activation assay […]
caspase8, and lysed with Cell Extraction Buffer. This lysate was diluted in Standard Diluent Buffer over the range of the assay and measured for human active caspase-8 content. (Cells are Plated in a density of 1.2 – 1.8 × 10,000 cells/well in a vo lume of 100µl complete growth medium + 100 ul of the tested compound per well in a 96-well plate for 24 hours before the enzyme assay for Tubulin.). The absorbance of each microwell was read on a spectro-photometer at 450 nm. A standard curve is prepared from 7human Caspase-8 standard dilutions and human Caspase-8 concentration determined. […]

Bcl-2 = Bcl-2 level assay in A-549 cells
Procedure: Compounds Va and Vg were explored further for their impact on caspase-8, Bax, and Bacl-2 levels against a human epithelial cancer cell line (A-549) using doxorubicin as a reference. See Supplementary Materials. […]
4.2.8. Bcl-2inhibition assay
Mix all reagents thoroughly without foaming before use. Wash the microwells twice with approximately 300 μL Wash Buffer per well with thorough aspiration of microwell contents between washes. Take caution not to scratch the surface of the microwells. After the last wash, empty the wells and tap microwell strips on absorbent pad or paper towel to remove excess Wash Buffer. Use the microwell strips immediately after washing or place upside down on a wet absorbent paper for not longer than 15 minutes. […] Add 100 μL of Sample […]
Diluent in duplicate to all standard wells and to the blank wells. Prepare standard (1:2 dilution) in duplicate ranging from 32 ng/mL to 0.5 ng/mL. Add 100 μL of Sample Diluent, in duplicate, to the blank wells. Add 80 μL of Sample Diluent, in duplicate, to the sample wells. Add 20 μL of each Sample, in duplicate, to the designated wells. Add 50 μL of diluted biotin-conjugate to all wells, including the blank wells. Cover with a plate cover and incubate at room temperature, on a microplate shaker at 100 rpm if available, for 2 hours. Remove plate cover and empty the wells.
Wash microwell strips 3 times as described in step 2. Add 100 μL of diluted Streptavidin-HRP to all wells, including the blank wells. Cover with a plate cover and incubate at room temperature, on a microplate shaker at 100 rpm if available, for 1 hour. Remove plate cover and empty the wells.
Wash microwell strips 3 times as described in step 2. Proceed to the next step. Pipette 100 μl of mixed TMB Substrate Solution to all wells, including the blanks. Incubate the microwell strips at room temperature (18° to 25°C) for about 15 minutes, if available on a rotator set at 100 rpm.
Avoid direct exposure to intense light. The point, at which the substrate reaction is stopped, is often determined by the ELISA reader. Many ELISA readers record absorbance only up to 2.0
O.D. Therefore, the color development within individual microwells must be watched by the person running the assay and the substrate reaction stopped before positive wells are no longer properly detectable. Stop the enzyme reaction by quickly pipetting 100 μL of Stop Solution into each well, including the blank wells. It is important that the Stop Solution is spread quickly and uniformly throughout the microwells to completely inactivate the enzyme. Results must be read immediately after the Stop Solution is added or within one hour if the microwell strips are stored at 2 - 8°C in the dark. Read absorbance of each microwell on a spectrophotometer using 450 nm as the primary wavelength.

caspase-3 = assay: Caspase 3 assay in A-549 cells; conditions: for Caspase-3 Conc: untreated control 66 pg/mL
Procedure: Caspases play a crucial function in the induction and completion of apoptosis. Caspase-3 is an essential caspase that cleaves different proteins in cells, resulting in apoptosis. […]
4.2.5. Caspase-3 activation assay
Allow all reagents to reach room temperature before use. Gently mix all liquid reagents prior to use. Determine the number of 8-well strips needed for the assay. Insert these in the frame(s) for current use. Add 100 μl of the Standard Diluent Buffer to the zero standard wells. Well(s) reserved for chromogen blank should be left empty. Add 100 μl of standards and controls or diluted samples to the appropriate microtiter wells. The sample dilution chosen should be optimized for each experimental system. Tap gently on side of plate to mix. Cover wells with plate cover and incubate for 2 hours at room temperature. Thoroughly aspirate or decant solution from wells and discard the liquid, Wash wells 4 times. Pipette 100 μl of Caspase-3 (Active) Detection Antibody solution into each well except the chromogen blank(s). Tap gently on the side of the plate to mix. Cover plate with plate cover and incubate for 1 hour at room temperature. Thoroughly aspirate or decant solution from wells and discard the liquid, Wash wells 4 times. Add 100 μl Anti-Rabbit IgG HRP Working Solution to each well except the chromogen blank(s). Prepare the working dilution as described in Preparing IgG HRP. Cover wells with the plate cover and incubate for 30 minutes at room temperature. Thoroughly aspirate or decant solution from wells and discard the liquid. Wash wells 4 times. Add 100 μl of Stabilized Chromoge n to each well. The liquid in the wells will begin to turn blue. Incubate for 30 minutes at room temperature and in the dark. The incubation time for chromogen substrate is often determined by the microtiter plate reader used. Many plate readers have the capacity to record a maximum optical density (O.D.) of 2.0. The O.D. values should be monitored, and the substrate reaction stopped before the O.D. of the positive wells exceeds the limits of the instrument. The O.D. values at 450 nm can only be read after the Stop Solution has been added to each well. If using a reader that records only to 2.0 O.D., stopping the assay after […]
Add 100 μl of Stop Solution to each well. Tap side of plate gently to mix. The solution in the wells should change from blue to yellow. Read the absorbance of each well at 450 nm having blanked the plate reader against a chromogen blank composed of 100 μl each of Stabilized Chromogen and Stop Solution. Read the plate within 2 hours after adding the Stop Solution. Use a curve fitting software to generate the standard curve. A four-parameter algorithm provides the best standard curve fit. Read the concentrations for unknown samples and controls from the standard curve. Multiply value(s) obtained for sample(s) by the appropriate dilution factor to correct for the dilution in step 3. Samples producing signals greater than that of the highest standard should be diluted in Standard Diluent Buffer and reanalyzed.

Bax = Bax level assay in A-549 cells
Procedure: caspase8, and lysed with Cell Extraction Buffer. This lysate was diluted in Standard Diluent Buffer over the range of the assay and measured for human active caspase-8 content. […]
4.2.7. Bax activation assay
Bring all reagents, except the human Bax-α Standard, to room temperature for at least 30 minutes prior to opening. The human Bax-α Standard solution should not be left at room temperature for more than 10 minutes. All standards, controls and samples should be run in duplicate. Refer to the Assay Layout Sheet to determine the number of wells to be used and put any remaining wells with the desiccant back into the pouch and seal the ziploc. Store unused wells at 4 °C. Pipet 100 μL of Assay Buffer into the S0 (0 pg/mL standard) wells. Pipet 100 μL of Standards #1 through #6 into the appropriate wells. Pipet 100 μL of the Samples into the appropriate wells. Tap the plate gently to mix the contents. Seal the plate and incubate at room temperature on a plate shaker for 1 hour at ~500 rpm. Empty the contents of the wells and wash by adding 400 μL of wash solution to every well. Repeat the wash 4 more times for a total of 5 washes. After the final wash, empty or aspirate the wells and firmly tap the plate on a lint free paper towel to remove any remaining wash buffer.
Pipet 100 μL of yellow Antibody into each well, except the Blank. Seal the plate and incubate at room temperature on a plate shaker for 1 hour at ~500 rpm. Empty the contents of the wells and wash by adding 400 μL of wash solution to every well. Repeat the wash 4 more times for a total of 5 washes. After the final wash, empty or aspirate the wells and firmly tap the plate on a lint free paper towel to remove any remaining wash buffer. Add 100 μL of blue Conjugate to each well, except the Blank. Seal the plate and incubate at room temperature on a plate shaker for 30 minutes […]
Pipet 100 μL of Substrate Solution into each well. Incubate for 30 minutes at room temperature on a plate shaker at ~500 rpm. Pipet 100 μL Stop Sol ution to each well. Blank the plate reader against the Blank wells, read the optical density at 450 nm. Calculate the average net Optical Density (OD) bound for each standard and sample by subtracting the average Blank OD from the average OD for each standard and sample. Using linear graph paper, plot the Average Net OD for each standard versus Bax concentration in each standard. Approximate a straight line through the points.
The concentration of Bax in the unknowns can be determined by interpolation. […]

COc1cccc2c1C(=O)c1c(O)c3c(c(O)c1C2=O)C[C@@](O)(C(=O)CO)C[C@@H]3O[C@H]1C[C@H](N)[C@H](O)[C@H](C)O1 [Doxorubicin, reference compound]
Caspase-8 Conc (caspase-8; control 0.10): 1.80 ng/mL | Caspase-8 Fold Change (caspase-8; vs control): 18 | Bcl-2 Conc (Bcl-2; control 5): 0.90 ng/mL | Bcl-2 Fold Reduction (Bcl-2; vs control): 6 | Caspase-3 Conc (caspase-3): 505 ± 4 pg/mL | Caspase-3 Conc (caspase-3; listed as doxorubicin): 505 ± 4.0 pg/mL | Caspase-3 Fold Change (caspase-3; vs untreated control): 7.5 | Bax Conc (Bax; control 9): 280 pg/mL | Bax Fold Change (Bax; vs control): 31
